Experimental data: patent publication US8409581B2, “Compounds for treating amyloidoses” (Affiris AG, priority 2008, dated 2013)
Ends that are not written are not given here.

How the values were obtained:
[1] = tested on: monoclonal antibody MV-002; assay: In vitro binding assay (ELISA) of mimotopes to parental antibody; design: species or system mice; conditions: peptide coupled to BSA bound to ELISA plates (1 μM); parental antibody MV-002
Method: 1. In Vitro Binding Assay (ELISA)
Peptides derived from Phage Display as well as variants thereof were coupled to BSA and bound to ELISA plates (1 μM; as indicated in the respective figures) and subsequently incubated with the monoclonal antibody that was used for the screening procedure to analyse binding capacity of identified peptides.

[2] = tested on: monoclonal antibody MV-002 binding to the original epitope; assay: In vitro inhibition assay (ELISA); design: species or system mice; conditions: for Inhibition Capacity (competition code): OD at 5 ug peptide compared to original peptide, MV-002; for inhibition in in vitro inhibition/competition assay: MV-002, original epitope coated on ELISA plates
Method: 2. In Vitro Inhibition Assay (ELISA)
Different amounts of peptides (concentrations ranging from 5 μg to 0.03 μg; serial dilutions), derived from Phage Display were incubated with the monoclonal antibody that was used for the screening procedure. Peptides diminishing subsequent binding of the antibody to the original epitope coated on ELISA plates were considered as inhibiting in this assay.

[3] = tested on: p1454 (unrelated sequence); assay: Mimotope vaccination of mice, serum titer ELISA against irrelevant peptide; assay type: in vivo, C57/B16 mice; conditions: 30 μg peptide-KLH, alum, s.c., FIG. 4
Method: (§1) Inhibiting as well as non-inhibiting peptides were coupled to KLH and injected into mice (wildtype C57/B16 mice; subcutaneous injection into the flank) together with an appropriate adjuvant (aluminium hydroxide). Animals were vaccinated 3-6 times in biweekly intervals and sera were taken biweekly as well. Titers to injected peptides, as well as to an irrelevant peptide were determined with every serum. Furthermore, titers against the recombinant human Aβ protein, and against original peptides were determined respectively. In general sera were analysed by reaction against peptides coupled to Bovine Serum Albumin (BSA) and recombinant full length proteins which were immobilised on ELISA plates. Titers were determined using anti mouse IgG specific antibodies. For detailed results see FIGS. 4, 5 and 6 respectively.
(§2) Female C57/b16 mice, 5-6 mice per group, were subcutaneously immunized with 30 μg peptide coupled to KLH. Control groups were administered original epitope-KLH conjugates respectively. As adjuvant alum was used (always 1 mg per mouse). […] The in vitro ELISA assay to determine the antibody titer was performed with sera of single mice after each vaccination in a two week interval (see FIGS. 6 and 7 respectively). Titers were calculated as OD max/2 in all figures shown. The wells of the ELISA plate were coated with mimotope-BSA conjugate and an irrelevant peptide-BSA conjugate (negative control). The positive control was performed by reaction of the parental antibody with the respective mimotope-BSA conjugate. The detection was performed with anti-mouse IgG. Additionally, recombinant proteins were immobilised on ELISA plates and sera reacted accordingly. FIGS. 4, 5 and 6 show representative examples for assays used to characterise mimotopes in vivo.

[4] = tested on: injected peptide; assay: Mimotope vaccination of mice, serum titer ELISA against injected peptide; assay type: in vivo, C57/B16 mice; conditions: 30 μg peptide-KLH, alum, s.c., FIG. 4
Method: as §1, §2

[5] = tested on: original epitope p4377; assay: Mimotope vaccination of mice, serum titer ELISA against original epitope; assay type: in vivo, C57/B16 mice; conditions: 30 μg peptide-KLH, alum, s.c., FIG. 5
Method: as §1, §2

Substance | Binding Capacity (binding code; OD halfmax 1:X, dilution factor of the parental AB) [1] | other results
NDAKIVFC [p4667, MV-002 mimotope peptide] | 3 (strong binding :>320000) | Inhibition Capacity (competition code) [2]: 1 (Weaker than original epitope (OD of peptide below 4, 6 times of original peptide))
GEIYFERC [p4681, MV-002 mimotope peptide] | 3 (strong binding :>320000) | unspecific immune response against unrelated sequence (p1454) [3]: failed to induce a relevant unspecific immune response; immune response against injected peptide [4]: elicited immune responses; immune response against the original epitope p4377 [5]: mounted detectable immune responses; inhibition in in vitro inhibition/competition assay [2]: active in in vitro inhibition assays; Inhibition Capacity (competition code) [2]: 2 (strong inhibition (as original epitope; OD of peptide below 2, 3 times of original peptide))
GQIKFAQC [p4694, MV-002 mimotope peptide] | 3 (strong binding :>320000) | 
GELFFPKC [p4685, MV-002 mimotope peptide] | 3 (strong binding :>320000) | 
SGQLKFPC [p4413, MV-002 mimotope peptide] | 1 (weak binding :<40000) | 
GELYFRAC [p4677, MV-002 mimotope peptide] | 3 (strong binding :>320000) | 
EVHHQKLVFC [p4377, reference compound] |  | unspecific immune response against unrelated sequence (p1454) [3]: failed to induce a relevant unspecific immune response; immune response against injected peptide [4]: elicited immune responses; immune response against the original epitope p4377 [5]: mounted detectable immune responses
AGEIYFERC [p4806, MV-002 mimotope peptide] | 1 (weak binding :<40000) | 
CGEIYFER [p4807, MV-002 mimotope peptide] | 1 (weak binding :<40000) | 
AIPLFVMC [p4682, MV-002 mimotope peptide] | 1 (weak binding :<40000) | 
GQIQFPLC [p4697, MV-002 mimotope peptide] | 3 (strong binding :>320000) | 
SGEIYFERC [p4805, MV-002 mimotope peptide] | 1 (weak binding :<40000) | 
GQLKFPFC [p4690, MV-002 mimotope peptide] | 3 (strong binding :>320000) | 
GDLKFPLC [p4683, MV-002 mimotope peptide] | 3 (strong binding :>320000) | 
GEILFGMC [p4689, MV-002 mimotope peptide] | 3 (strong binding :>320000) | Inhibition Capacity (competition code) [2]: 1 (Weaker than original epitope (OD of peptide below 4, 6 times of original peptide))
SGQIWFRC [p4414, MV-002 mimotope peptide] | 1 (weak binding :<40000) | 
GEMQFFIC [p4676, MV-002 mimotope peptide] | 3 (strong binding :>320000) | 
GSLFFWPC [p4688, MV-002 mimotope peptide] | 2 (medium binding :40000-320000) | 
GEIQFGAC [p4699, MV-002 mimotope peptide] | 3 (strong binding :>320000) | Inhibition Capacity (competition code) [2]: 1 (Weaker than original epitope (OD of peptide below 4, 6 times of original peptide))
SHTRLYFC [p4403, MV-002 mimotope peptide] | 1 (weak binding :<40000) | unspecific immune response against unrelated sequence (p1454) [3]: failed to induce a relevant unspecific immune response; immune response against injected peptide [4]: elicited immune responses; immune response against the original epitope p4377 [5]: mounted detectable immune responses; inhibition in in vitro inhibition/competition assay [2]: without inhibition capacity
GEIRFELC [p4796, MV-002 mimotope peptide] | 2 (medium binding :40000-320000) | 
HMRMYFEC [p4687, MV-002 mimotope peptide] | 3 (strong binding :>320000) | 
GMIVFPHC [p4679, MV-002 mimotope peptide] | 3 (strong binding :>320000) | 

Substance | Binding Capacity (binding code; OD halfmax 1:X, dilution factor of the parental AB) [1] | other results
KLPLFVMC [p4691, MV-002 mimotope peptide] | 1 (weak binding :<40000) | 
SGEIHFNC [p4415, MV-002 mimotope peptide] | 1 (weak binding :<40000) | 
HQKMIFC [p4794, MV-002 mimotope peptide] | 2 (medium binding :40000-320000) | Inhibition Capacity (competition code) [2]: 1 (Weaker than original epitope (OD of peptide below 4, 6 times of original peptide))
SHQRLWFC [p4674, MV-002 mimotope peptide] | 3 (strong binding :>320000) | Inhibition Capacity (competition code) [2]: 1 (Weaker than original epitope (OD of peptide below 4, 6 times of original peptide))
Ac-GEIYFERC [p4804, MV-002 mimotope peptide, N-terminally acetylated] | 2 (medium binding :40000-320000) | 
GEMWFALC [p4671, MV-002 mimotope peptide] | 3 (strong binding :>320000) | 
GELWFPC [p4673, MV-002 mimotope peptide] | 3 (strong binding :>320000) | Inhibition Capacity (competition code) [2]: 1 (Weaker than original epitope (OD of peptide below 4, 6 times of original peptide))
GEIRFALC [p4678, MV-002 mimotope peptide] | 3 (strong binding :>320000) | 
GEIRFGSC [p4696, MV-002 mimotope peptide] | 3 (strong binding :>320000) | 
GQIRFDHC [p4669, MV-002 mimotope peptide] | 3 (strong binding :>320000) | 
GELQFPPC [p4672, MV-002 mimotope peptide] | 3 (strong binding :>320000) | 
GTLIFHHC [p4695, MV-002 mimotope peptide] | 2 (medium binding :40000-320000) | 
GEIKFDHC [p4698, MV-002 mimotope peptide] | 3 (strong binding :>320000) | Inhibition Capacity (competition code) [2]: 2 (strong inhibition (as original epitope; OD of peptide below 2, 3 times of original peptide))
GELFFEKC [p4795, MV-002 mimotope peptide] | 2 (medium binding :40000-320000) | 
QLPLFVLC [p4700, MV-002 mimotope peptide] | 1 (weak binding :<40000) | 
GQILFPVC [p4684, MV-002 mimotope peptide] | 3 (strong binding :>320000) | 
THQRLWFC [p4693, MV-002 mimotope peptide] | 3 (strong binding :>320000) | 
SGEYVFHC [p4404, MV-002 mimotope peptide] | 1 (weak binding :<40000) | 
GQIIFQSC [p4668, MV-002 mimotope peptide] | 2 (medium binding :40000-320000) | 
GQIMFPRC [p4686, MV-002 mimotope peptide] | 3 (strong binding :>320000) | 
GQIWFISC [p4666, MV-002 mimotope peptide] | 1 (weak binding :<40000) | 
GTIFFRDC [p4692, MV-002 mimotope peptide] | 1 (weak binding :<40000) | 
